This passage reports inhibition, pest or weed control and inhibition of growth results from patent publication US5726162A (priority 1996, dated 1998).

Where two headings read alike, the source gives them in different places.

For test [1], the system named is fungal inoculum. Put plainly: organism not typed. As to conditions: read-out: % growth inhibition. The test is classed as cell-based.
Test [2] concerns Magnaporthe grisea (Pyricularia oryzae). Put plainly: whole plant or invertebrate. The test is classed as in vivo, Magnaporthe grisea (Pyricularia oryzae) on M201 rice plants. As to conditions: Pyricularia oryzae, 144 h, read-out: % Control RB.
The test system of test [3] is Thanatephorus cucumeris (Rhizoctonia solani). The experiment in a line: In vivo test b) Rice Sheath Blight (RSB), 24 hour preapplication protectant, % control. The settings on record: read-out: % Control RSB. On the procedure: Compounds were tested at 200 ppm as a twenty-four hour preapplication protectant test prior to inoculation.
b) Rice Sheath Blight (RSB)
Thanatephorus cucumeris (Rhizoctonia solani) mycelia were grown for six days in potato dextrose broth in shake culture. Drained mycelial mats were blended with an approximately equal weight of rice flour and five parts water. This slurry was dispensed onto the soil surface of pots containing rice seedlings previously treated with experimental compounds. The plants were placed in a mist chamber at 25°-28° C. for 48 hours. Following two more days at 25° C. and 70-90% relative humidity the plants were evaluated for percent disease control compared to check plants.

Test [4] deals with fungal mycelium. The experiment in a line: organism not typed. The settings on record: read-out: % growth inhibition. It is filed as cell-based.
The subject of test [5] is Candida albicans. Put plainly: Activity against Candida albicans in microtiter plates, % control of growth. The test is classed as cell-based. On the procedure:
The activity against Candida albicans was determined using the following test protocol.
Conidia and mycelium from the Candida albicans culture maintained on potato dextrose agar plates were lightly scraped off into yeast extract-dextrose broth (YDB) so that mostly conidia was used as inoculum. The conidial suspsension was strained through a double layer of cheesecloth to remove mycelial clumps. The inoculum mixture was placed in microtiter plates using a 12-tipped pipet. 175 microliters were placed in each well of the microliter plates and the plates were placed in the refrigerator overnight. There were two replications.
The compounds to be tested were dissolved in 1:1 acetone:methanol and 100 ppm of the compound solution were placed in a well of the prepared microtiter plates.
The microtiter plates were incubated for 7 days at room temperature after addition of the compounds. Percent control was visually estimated using a microtiter plate reading mirror. Readings were made at 1, 2, 3, and/or 7 days after treatment.

Setting [6] is: 24 h, 1 day after treatment, read-out: % control of growth +1.
The mark [7] stands for this setting: 48 h, 2 days after treatment, read-out: % control of growth +2.
[8] abbreviates: 72 h, 3 days after treatment, read-out: % control of growth +3.

For `CCC(O)CN1N=C(c2ccc(Cl)c(Cl)c2)CCC1=O` (stereo not drawn) [Compound 3], the inhibition – broadly, how much of the control response was suppressed – at 100 ppm in test [1] was found to be 53.6%. In addition, the pest or weed control at 200 ppm in test [2] amounted to 0%; in test [3] (200 ppm, protectant) it was 0%.

Take `C/C=C\C#CCN1N=C(c2ccc(Cl)cc2)CCC1=O` [Compound 102]: in test [4], the inhibition at 1 ppm is 100%. Moreover, the pest or weed control at 200 ppm turned out to be 99% in test [2] and 0% in test [3] (200 ppm, protectant).

Take `O=C1CCC(c2ccc(Cl)cc2)=NN1C(=O)c1ccccc1` [Compound 16]: the inhibition at 50 ppm in test [1] is 12.7%. Further, the pest or weed control at 200 ppm in test [2] was 0%; in test [3] (200 ppm, protectant), 50%.

With `C=CC#CCN1N=C(c2ccc(Cl)cc2)CCC1=O` [Compound 56, 6-(4-chlorophenyl)-2-(3'-vinyl-2'-propynyl)-4,5-dihydropyridazinone], in test [1], the inhibition at 1 ppm is 100%. Also, in test [2], the pest or weed control at 200 ppm was 100%. In addition, the inhibition of growth at 100 ppm in test [5] (setting [6]), in test [5] (setting [7]) and in test [5] (setting [8]) was 100% each time.

Consider `CC#CCN1N=C(c2ccc(F)cc2)CCC1=O` [Compound 13], for which the inhibition at 10 ppm in test [1] turned out to be 87%. The pest or weed control at 200 ppm in test [2] stood at 50%; in test [3] (200 ppm, protectant), 50%.

For the molecule `O=C1CCC(c2ccc(Cl)cc2)=NN1Cc1ccccc1` [Compound 10], the inhibition at 100 ppm in test [1] came out at 100%. The pest or weed control at 200 ppm in test [3] worked out at 80%.

Consider `CC#CCN1N=C(c2cccnc2)CCC1=O` [Compound 132], for which the inhibition at 200 ppm in test [4] stood at 91.8%. Further, the pest or weed control at 200 ppm came out at 0% in test [2] and 0% in test [3] (200 ppm, protectant).

Take `CC#CCCN1N=C(c2ccc(Cl)cc2)CCC1=O` [Compound 21]: the inhibition at 100 ppm in test [1] turned out to be 45.8%. The pest or weed control at 200 ppm in test [2] came to 0%; in test [3] (200 ppm, protectant), 0%.

With `CCC#CCN1N=C(c2ccc(Cl)cc2)CC=C1Br` [Compound 160], in test [4], the inhibition at 1 ppm stood at 100%. Besides, the pest or weed control at 200 ppm stood at 0% in test [2] and 95% in test [3] (200 ppm, protectant).

`CCC#CCn1nc(-c2ccc(Cl)cc2)c2ccccc2c1=O` [Compound 154]: the inhibition at 10 ppm in test [4] came out at 16%. The pest or weed control at 200 ppm turned out to be 50% in test [2] and 0% in test [3] (200 ppm, protectant).

`CC=CC#CCN1N=C(c2ccc(Cl)cc2)CCC1=O` [Compound 101]: in test [4], the inhibition at 1 ppm turned out to be 100%. Further, the pest or weed control at 200 ppm in test [2] amounted to 75%; in test [3] (200 ppm, protectant) it was 0%.

Take `O=C1CCC(c2ccc(Cl)cc2)=NN1Cc1cccc(Cl)c1` [Compound 105]: the inhibition at 10 ppm in test [4] was 33.3%. The pest or weed control at 200 ppm stood at 75% in test [2] and 0% in test [3] (200 ppm, protectant).

For the molecule `CCC#CCN1N=C(c2ccc(Cl)cc2)CCC1=S` [Compound 153, 6-(4-chlorophenyl)-2-(2'-pentynyl)-4,5-dihydropyridazinthione], the inhibition at 10 ppm in test [4] was found to be 90.9%. Moreover, the pest or weed control at 200 ppm in test [2] was found to be 0%. Besides, the inhibition of growth at 100 ppm in test [5] (setting [6]), in test [5] (setting [7]) and in test [5] (setting [8]) was 100% in each case.

For the molecule `C#CC=CCN1N=C(c2ccc(Cl)cc2)CCC1=O` [Compound 84], the inhibition at 50 ppm in test [1] is 75.8%. For the same molecule, the pest or weed control at 200 ppm in test [2] was 95%; in test [3] (200 ppm, protectant), 0%.

Consider `COc1ccc(C2=NN(CCCO)C(=O)CC2)cc1` [Compound 2], for which, in test [1], the inhibition at 100 ppm turned out to be 0%. Besides, the pest or weed control at 200 ppm is 0% in test [2] and 0% in test [3] (200 ppm, protectant).

`CC#CCN1N=C(C=Cc2ccc(C(C)(C)C)cc2)CCC1=O` [Compound 107]: the inhibition at 200 ppm in test [4] is 83.7%. The pest or weed control at 200 ppm came out at 0% in test [2] and 0% in test [3] (200 ppm, protectant).

Take `C/C=C/C#CCN1N=C(c2ccc(Cl)cc2)CCC1=O` [Compound 103]: in test [4], the inhibition at 1 ppm is 100%. Moreover, the pest or weed control at 200 ppm in test [2] amounted to 95%; in test [3] (200 ppm, protectant), 0%.

In the case of `CC=CCN1N=C(c2ccc(Cl)cc2)CCC1=O` [Compound 8], the inhibition at 100 ppm in test [1] is 96.2%. In addition, the pest or weed control at 200 ppm in test [2] was 0%; in test [3] (200 ppm, protectant), 0%.

Regarding `CC#CCN1N=C(c2ccccc2)CCC1=O` [Compound 9], the inhibition at 100 ppm in test [1] amounted to 94.4%. Also, the pest or weed control at 200 ppm in test [2] worked out at 0%; in test [3] (200 ppm, protectant), 0%.

On to `O=C1CCC(c2ccc(Cl)cc2)=NN1CC#CC(F)F` [Compound 89], for which the inhibition at 10 ppm in test [4] was determined as 100%. In addition, the pest or weed control at 200 ppm in test [2] came to 95%; in test [3] (200 ppm, protectant), 0%.

On to `CCC#CCn1nc(-c2ccc(F)c(Cl)c2)ccc1=O` [Compound 129], for which, in test [4], the inhibition at 1 ppm is 100%. For the same molecule, the pest or weed control at 200 ppm in test [2] is 0%; in test [3] (200 ppm, protectant) it was 0%.

Turning to `CCC#CCN1N=C(c2ccc(C)cc2)CCC1=O` [Compound 80], in test [4], the inhibition at 2.5 ppm was 100%. Moreover, the pest or weed control at 200 ppm was 99% in test [2] and 0% in test [3].

As to `CCC#CCN1N=C2c3ccc(Cl)cc3C(C)C2CC1=O` (stereo not drawn) [Compound 155], the inhibition at 10 ppm in test [4] is 92%. In addition, the pest or weed control at 200 ppm in test [2] came to 100%; in test [3] (200 ppm, protectant) it was 90%.

`CC(C)C#CCN1N=C(c2ccc(Cl)cc2)CCC1=O` [Compound 34]: in test [1], the inhibition at 10 ppm worked out at 100%. In addition, the pest or weed control at 200 ppm in test [2] turned out to be 90%. The inhibition of growth at 100 ppm in test [5] (setting [6]), in test [5] (setting [7]) and in test [5] (setting [8]) was 100% each time.

Turning to `CCC#CCN1N=C(c2ccc(Cl)cc2)CC=C1n1cncn1` [Compound 159], the inhibition at 1 ppm in test [4] is 100%. Also, the pest or weed control at 200 ppm was 0% in test [2] and 0% in test [3] (200 ppm, protectant).

As for `CCC#CCN1N=C(c2ccc(Cl)cc2)CC=C1Cl` [Compound 157, 6-(4-chlorophenyl)-3-chloro-2-(2'-pentyn-1-yl)-2,5-dihydropyridazine], the inhibition at 10 ppm in test [4] was determined as 100%. Moreover, the pest or weed control at 200 ppm is 10% in test [2] and 0% in test [3] (200 ppm, protectant).

For `CCC#CCn1nc(-c2ccc(Br)c(F)c2)ccc1=O` [Compound 127], the inhibition at 1 ppm in test [4] is 100%. In test [2], the pest or weed control at 200 ppm was determined as 0%. The inhibition of growth at 100 ppm in test [5] (setting [6]), in test [5] (setting [7]) and in test [5] (setting [8]) was 100% each time.

Regarding `CCC#CCn1nc(-c2ccc(Cl)c(F)c2)ccc1=O` [Compound 120], in test [4], the inhibition at 1 ppm was found to be 100%. In addition, in test [2], the pest or weed control at 200 ppm is 99%. For the same molecule, the inhibition of growth at 100 ppm in test [5] (setting [6]), in test [5] (setting [7]) and in test [5] (setting [8]) was 100% each time.

Take `CCC#CCN1N=C(c2ccc(F)c(Cl)c2)CCC1=O` [Compound 104]: the inhibition at 5 ppm in test [4] was 100%. Also, the pest or weed control at 200 ppm in test [2] was found to be 0%; in test [3] (200 ppm, protectant), 0%.

With `CCC#CCN1N=C(c2ccc(-c3ccccc3)cc2)CCC1=O` [Compound 79], the inhibition at 50 ppm in test [4] worked out at 17%. For the same molecule, the pest or weed control at 200 ppm turned out to be 100% in test [2] and 75% in test [3] (200 ppm, protectant).

`CCC#CCN1N=C(c2cc(F)c(Cl)c(F)c2)CCC1=O` [Compound 90]: the inhibition at 1 ppm in test [4] turned out to be 100%. For the same molecule, the pest or weed control at 200 ppm in test [2] is 0%; in test [3] (200 ppm, protectant), 95%.
